Marks after values point to notes of the source that are not given here. Where a SMILES comes first, the peptide text is derived from it. The star is where a group is joined. Myristoyl = CCCCCCCCCCCCCC(=O)*

Broadly, the solubility is how much of the substance goes into solution per volume.

A short description of series [1]: Qualitative solubility of test peptides in 0.5 N saline. Format: physicochemical. To be noted: pH 6.5, 20° C. (table title). In outline:
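Weighed peptide (1 to 5 mg) titrated with 25 μL aliquots of 0.5 N saline, pH 6.5, at 25° C until dissolution judged visually. Solubility calculated from volume needed; complete dissolution in first aliquot reported as greater than, non-dissolution as less than, the calculated value.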

For the next series, the system named is HBE1 cells. Briefly: PMA-induced mucin hypersecretion in human bronchial epithelial cells (air/liquid interface, MUC5A ELISA). Format: cell-based. To be noted: for Block of PMA-induced increase in mucin secretion: pretreatment with 25 μM peptide. The protocol:
HBE1 is a papilloma virus-transformed human bronchial epithelial cell line capable of mucin secretion when cultured in air/liquid interface. HBE1 cells were cultured in the air/liquid interface as described previously (Li et al, J. Biol. Chem., volume 276, pp 40982-40990, 2001). Briefly, HBE1 cells were cultured in air/liquid interface by seeding an appropriate number of cells in 12-well Transwell clear culture inserts (Costar, Cambridge, Mass.) that were thinly coated with rat tail collagen, type I (Collaborative Biomedical, Bedford, Mass.). Cells were initially cultured submerged in medium in a humidified 95% air, 5% CO2 environment for 5-7 days until nearly confluent. At that time, the air/liquid interface was created by removing the apical medium and feeding cells basalaterally. Medium was renewed daily thereafter. Cells were cultured for an additional 14 days to allow full differentiation. The accumulated mucin at the apical surface of the cells was removed by washing with phosphate-buffered saline, pH 7.2. To collect the baseline mucin secretion, cells were incubated for 30 min with medium alone and secreted mucin in the apical medium was collected, and quantitated by ELISA. To determine the mucin hypersecretion induced by a mucin secretagogue, cells were exposed to medium containing 0.5 μM phorbol myristate acetate, (PMA) for 30 min. and mucin was collected and quantitated by ELISA. […] Six wells were used for each test peptides and for each control. Secreted mucin in the apical medium was collected and quantitated by sandwich ELISA method using alkaline phosphatase-conjugated mucin (MUC5A) specific antibody (Zymed Laboratories, San Francisco, Calif.).

The test system of series [2] is methacholine-induced mucin hypersecretion. Briefly: Methacholine-induced mucin hypersecretion in ovalbumin-sensitized mouse model of asthma, BAL mucin ELISA (Balb/C mice). Format: in vivo. The settings on record: for Mucin Secretion % control: peptides at 100 μM; for Mucin Secretion % of control: Table IV, peptide 100 μM. In outline: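 BP2 or Balb/C mice immunized s.c. twice weekly with 1 μg ovalbumin, aerosol ovalbumin challenge after 14 days, then aerosolized methacholine 72 h later. Anti-MUC5AC ELISA on cell-free BAL, minus non-immune antibody signal, normalized to Bradford protein; 6 mice per group.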
For orientation: An ELISA detects its analyte on a solid surface through an enzyme-linked reagent.

Series [3] shares this test system. In words: Methacholine-induced mucin hypersecretion in ovalbumin-sensitized mouse model of asthma, BAL mucin ELISA (BP2 mice). The series is classed as in vivo. The source says: (§1) Experiments were designed to test whether or not the MANS peptide and other test peptides related thereto inhibit hypersecretion of mucin in murine airway in vivo. The ovalbumin-sensitized mouse model of allergic inflammation and asthma used in these studies was as described by Singer et al. (2004), supra. As a negative control, a control peptide containing an N-terminal myristoyl group and the same amino acids as MANS peptide but arranged in random order (i.e., the random N-terminal sequence, RNS, myristoyl-peptide 232) was tested alongside the proposed active peptides. BP2 mice, aged 6-8 wks, were immunized subcutaneously twice at weekly intervals with 1 μg of ovalbumin. After 14 days of sensitization, the animals were exposed to aerosolized ovalbumin, which causes a pronounced goblet cell hyperplasia after 72 hours. At the 72 hr time point, the secretagogue, methacholine ([…]) was delivered using a Buxco system nebulizer providing a fine aerosol for 90 seconds. Fifteen min prior to the secretagogue challenge, 50 μL of the test peptide, at 3 different concentrations (10 μM, 100 μM, or 140 μM), was administered by intratracheal route. The RNS peptide was tested at the highest dose level only (50 μL of 140 μM solution). […] Each experiment was carried out in 6 mice per point, and each set of experiments was repeated 3 times. To test strain-to-strain variations, the above experiment was repeated in Balb/C mice under similar protocol. Both stimulated and unstimulated mucin secretion, in mice treated with […] sodium acetate (data not shown), were identical to saline control. Following the methacholine challenge, the animals were sacrificed and bronchoalveolar lavage (BAL) performed on 6 animals per group for analysis of secreted mucin.
(§2) Mice were sacrificed by cervical dislocation, followed by rapid exposure of the trachea and insertion of a cannula through a small incision. Bronchoalveolar lavage (BAL) fluid was collected with 0.5 ml followed by 3×1 ml PBS containing PMSF (5 mM), EDTA (5 mM), and DTT (5 mM). BAL fluid was separated into cell-free and cell fractions via brief centrifugation prior to any analyses being performed. The cell-free supernatants were analyzed for the presence of mucin via an ELISA method using anti-mucin antibodies shown to react with mouse mucin. Specifically, a mouse anti-MUC5AC antibody that recognizes the carbohydrate portion of secreted mucin was used in these assays. Data generated from each BAL sample were normalized to total protein as determined by Bradford assay. Mucin content was expressed as the value obtained with the anti-mucin antibody minus that obtained with the non-immune control antibody. All ELISA data were statistically examined using a one-way ANOVA.

Series [4] shares this test system. Briefly: Duration of action of test peptides in a murine model of asthma. The settings on record: Balb/C mice. The series is classed as in vivo.
From the text: as §1, §2
Experiments were designed to determine the duration of action of test peptides in a murine model of asthma. As described in Method 1A, Balb/C mice were immunized with ovalbumin. After 14 days, the animals were challenged with aerosolized ovalbumin. After 72 hours the secretagogue, methacholine was delivered by aerosolization. The test peptides ([…] of 100 µM solution) were administered by intratracheal route 30 min, 60 min, or 120 min prior to methacholine challenge. The animals were sacrificed and BAL performed for analysis of secreted mucin The results of this experiment are given in Table VI.

The test system of the next series is nasal mucus secretion. In words: Mucus secretion in upper respiratory tract of primates (nasal lavage, ELISA). Format: in vivo. To be noted: rhesus monkeys; 2.0 mL of 140 μM solution in right nostril; nasal lavage 1 hour after treatment. The source says:
The purpose of the experiment was to determine the ability of MANS peptide to inhibit mucus secretion in the upper respiratory tract of healthy adult rhesus monkeys. The test used is a standard method for evaluation of nasal secretory activity, and non-human primates typically provide a good correlation to activity in man.
A total of 17 healthy young adult male rhesus monkeys without any prior history of rhinitis were used for the experiment. None of the monkeys had rhinitis before or after the study. The nasal mucus secretion of each monkey was measured in its left nostril prior to any treatment. This value is considered 100% mucus secretion. The monkeys were then randomly divided into the following 4 groups: • Group 1: Normal saline, control (n=3); • Group 2: Sodium acetate, solvent control (n=4); • Group 3: RNS peptide, negative control (n=5); and • Group 4: MANS peptide, test peptide (n=5).
Saline was placed in the left nostril of all 17 animals prior to any treatment. The right nostrils were treated with 2.0 mL of either saline, sodium acetate, RNS peptide or the MANS peptide. Thus, each animal had its own internal control. Nasal lavage was performed on both nostrils of each animal 1 hour after the treatment with the test articles. All lavages were immediately frozen at −80° C. and analyzed for mucus content by ELISA. […]

The nature of series [5]: Solubility in sodium acetate, pH 7. To be noted: 120 min sodium acetate, pH 7 (so in the source). The series is classed as physicochemical.
Setting [6] is: Table II, 50 μL intratracheal 15 min before methacholine.
The mark [7] stands for this setting: peptide intratracheal 30 min prior to methacholine challenge.
Where [8] appears, read: peptide intratracheal 60 min prior to methacholine challenge.
Setting [9] is: peptide intratracheal 120 min prior to methacholine challenge.

Take `CC(=O)N[C@@H](C)C(=O)N[C@@H](CCCCN)C(=O)NCC(=O)N[C@@H](CCC(=O)O)C(=O)O` [Ac-peptide 219] (Ac-AKGE-OH): the solubility in series [1] was greater than 200 mg/mL. For the same compound, the “Mucin secretion level below the unstimulated medium control” value in the series on HBE1 cells (25 μM peptide, then 0.5 μM PMA) is 20%. Also, the “Block of PMA-induced increase in mucin secretion” value with HBE1 cells (then 0.5 μM PMA) was 100%.
`CC(=O)N[C@@H](C)C(=O)N[C@@H](C)C(=O)NCC(=O)N[C@@H](CCC(=O)O)C(=O)O` [Ac-peptide 251] (Ac-AAGE-OH) yielded a solubility in series [1] greater than 200 mg/mL. The “Inhibitory effect on PMA-induced increase in mucin secretion” value in the series with HBE1 cells (peptide concentration not given, 0.5 μM PMA) turned out to be 6%.
In the case of `CCCCCCCCCCCCCC(=O)O[C@@H]1[C@@H](C)[C@@]2(O)[C@@H](C=C(CO)C[C@]3(O)C(=O)C(C)=C[C@@H]23)[C@@H]2C(C)(C)[C@]12OC(C)=O` [PMA, phorbol myristate acetate, reference compound], the “Increase in mucin secretion” value in the series with HBE1 cells (0.5 μM PMA, 30 min) was 20%.
`CCCCCCCCCCCCCC(=O)NCC(=O)N[C@@H](C)C(=O)N[C@@H](CCC(N)=O)C(=O)N[C@@H](Cc1ccccc1)C(=O)N[C@@H](CO)C(=O)N[C@@H](CCCCN)C(=O)N[C@H](C(=O)N[C@@H](C)C(=O)N[C@@H](C)C(=O)N[C@@H](CCCCN)C(=O)NCC(=O)N[C@@H](CCC(=O)O)C(=O)N[C@@H](C)C(=O)N[C@@H](C)C(=O)N[C@@H](C)C(=O)N[C@@H](CCC(=O)O)C(=O)N[C@@H](CCCNC(=N)N)C(=O)N1CCC[C@H]1C(=O)NCC(=O)N[C@@H](CCC(=O)O)C(=O)N[C@@H](C)C(=O)N[C@@H](C)C(=O)N[C@H](C(=O)N[C@@H](C)C(=O)O)C(C)C)[C@@H](C)O` [myr-peptide 1, reference compound] (Myristoyl-GAQFSKTAAKGEAAAERPGEAAVA-OH): the “Mucin Secretion % control” value is listed as 33.8 % control in series [2] (setting [6]) and 40 % control in series [2] (Table III). The “Mucin Secretion % of control” value in series [2] is 29** % of control; in series [3] (peptide 10 μM), 35 % of Control; in series [3] (peptide 100 μM), 12 % of Control; in series [3] (peptide 140 μM), 8 % of Control. The “Duration of action, mucin secretion (% of Control)” value in series [4] (setting [7]) is listed as 7 % of Control; in series [4] (setting [8]) it was 44 % of Control; in series [4] (setting [9]), 50 % of Control. In series [1], this compound returned a solubility of less than 5 mg/mL. Moreover, in the series with nasal mucus secretion, the “Inhibition of mucus secretion” value is on record as roughly 75%. Moreover, the “Block of PMA-induced increase in mucin secretion” value in the series on HBE1 cells (then 0.5 μM PMA) amounted to 100%. The “Solubility in sodium acetate” value in series [5] is “freely soluble”.
On to `CCCCCCCCCCCCCC(=O)NCC(=O)N[C@H](C(=O)N[C@@H](C)C(=O)N1CCC[C@H]1C(=O)N[C@@H](C)C(=O)N[C@@H](C)C(=O)N[C@@H](CCC(=O)O)C(=O)NCC(=O)N[C@@H](C)C(=O)NCC(=O)N[C@@H](C)C(=O)N[C@@H](CCC(=O)O)C(=O)N[C@H](C(=O)N[C@@H](CCCCN)C(=O)N[C@@H](CCCNC(=N)N)C(=O)N[C@@H](C)C(=O)N[C@@H](CO)C(=O)N[C@@H](C)C(=O)N[C@@H](CCC(=O)O)C(=O)N[C@@H](C)C(=O)N[C@@H](CCCCN)C(=O)N[C@@H](CCC(N)=O)C(=O)N[C@@H](C)C(=O)N[C@@H](Cc1ccccc1)C(=O)O)C(C)C)[C@@H](C)O` [myr-peptide 232, reference compound] (Myristoyl-GTAPAAEGAGAEVKRASAEAKQAF-OH), for which the “Mucin Secretion % control” value is reported as 96 % control in series [2] (setting [6]) and 81** % control in series [2] (Table III). Further, the “Mucin Secretion % of control” value in series [2] was 108 % of control; in series [3] (peptide 100 μM) it was 100 % of Control; in series [3] (peptide 140 μM) it was 100 % of Control. Besides, the “Duration of action, mucin secretion (% of Control)” value in series [4] (setting [7]), in series [4] (setting [8]) and in series [4] (setting [9]) was 100 % of Control throughout. The same compound showed a solubility in series [1] greater than 15 mg/mL. In addition, the “Inhibition of mucus secretion” value with nasal mucus secretion was “did not have any effect”. Moreover, the “Solubility in sodium acetate” value in series [5] is “freely soluble”.

For the origin of these results see US9598463B2, “Mucin hypersecretion inhibitors and methods of use” (BIOMARCK PHARMACEUTICALS, LTD., priority 2005, dated 2017).
